Results from patent US8772343B2, “Chemical compounds” (Pfizer Limited, priority 2010, dated 2014).
Counter-ions that a name gives are not always drawn.

Target: T1, Nav1.7 (or SCN9A) channel (Homo sapiens, UniProt Q15858)
T1 construct: expressed in transfected cells
Assay: Nav1.7 PatchXpress automated whole-cell electrophysiology in HEK cells expressing hSCN9A
Type: cell-based
Details: estimated IC50 from single point data, PatchXpress assay, held at V1/2 of inactivation, read-out: Nav1.7 EIC50
Description: The ability of the compounds of formula (I) to block the Nav1.7 (or SCN9A) channel were measured using the assay described below.
Human Embryonic Kidney (HEK) cells were transfected with an hSCN9A construct using lipofectamine reagent (Invitrogen), using standard techniques. Cells stably expressing the hSCN9A constructs were identified by their resistance to G-418 (400 μg/ml). Clones were screened for expression using the whole-cell voltage-clamp technique.
HEK cells stably transfected with hSCN9A were maintained in DMEM medium supplemented with 10% heat-inactivated fetal bovine serum and 400 μg/ml G-418 in an incubator at 37° C. with a humidified atmosphere of 10% CO2. For HTS, cells were harvested from flasks by trypsinization and replated in an appropriate multi-well plate (typically 96 or 384 wells/plate) such that confluence would be achieved within 24 hours of plating. For electrophysiological studies, cells were removed from the culture flask by brief trypsinization and re-plated at low density onto glass cover slips. Cells were typically used for electrophysiological experiments within 24 to 72 hours after plating.
Cover slips containing HEK cells expressing hSCN9A were placed in a bath on the stage of an inverted microscope and perfused (approximately 1 ml/minutes) with extracellular solution of the following composition: 138 mM NaCl, 2 mM CaCl2, 5.4 mM KCl, 1 mM MgCl2, 10 mM glucose, and 10 mM HEPES, pH 7.4, with NaOH. […] The osmolarity of the extracellular and intracellular solutions was 300 mOsm/kg and 295 mOsm/kg, respectively. All recordings were made at room temperature (22-24° C.) using AXOPATCH 200B amplifiers and PCLAMP software (Axon Instruments, Burlingame, Calif.).
hSCN9A currents in HEK cells were measured using the whole-cell configuration of the patch-clamp technique (Hamill et al., 1981). Uncompensated series resistance was typically 2 to 5 mega ohms and >85% series resistance compensation was routinely achieved. As a result, voltage errors were negligible and no correction was applied. Current records were acquired at 20 to 50 KHz and filtered at 5 to 10 KHz.
HEK cells stably transfected with hSCN9A were viewed under Hoffman contrast optics and placed in front of an array of flow pipes emitting either control or compound-containing extracellular solutions. All compounds were dissolved in dimethyl sulfoxide to make 10 mM stock solutions, which were then diluted into extracellular solution to attain the final concentrations desired. […] The voltage-dependence of inactivation was determined by applying a series of depolarizing prepulses (8 sec long in 10 mV increments) from a negative holding potential. The voltage was then immediately stepped to 0 mV to assess the magnitude of the sodium current. Currents elicited at 0 mV were plotted as a function of prepulse potential to allow estimation of the voltage at which 50% of the channels were inactivated (midpoint of inactivation or V1/2). Compounds were tested for their ability to inhibit hSCN9A sodium channels by activating the channel with a 20 msec voltage step to 0 mV following an 8 second conditioning prepulse to the empirically determined V1/2. Compound effect (% inhibition) was determined by difference in current amplitude before and after application of test compounds. For ease of comparison, “estimated IC-50” (EIC50) values were calculated from single point electrophysiology data by the following equation, (tested concentration, uM)×(100-% inhibition/% inhibition). Inhibition values<20% and >80% were excluded from the calculation.
Electrophysiological assays were conducted with PatchXpress 7000 hardware and associated software (Molecular Devices Corp). All assay buffers and solutions were identical to those used in conventional whole-cell voltage clamp experiments described above. hSCN9A cells were grown as above to 50%-80% confluency and harvested by trypsinization. […]

T1 sequence (Q15858 whole entry): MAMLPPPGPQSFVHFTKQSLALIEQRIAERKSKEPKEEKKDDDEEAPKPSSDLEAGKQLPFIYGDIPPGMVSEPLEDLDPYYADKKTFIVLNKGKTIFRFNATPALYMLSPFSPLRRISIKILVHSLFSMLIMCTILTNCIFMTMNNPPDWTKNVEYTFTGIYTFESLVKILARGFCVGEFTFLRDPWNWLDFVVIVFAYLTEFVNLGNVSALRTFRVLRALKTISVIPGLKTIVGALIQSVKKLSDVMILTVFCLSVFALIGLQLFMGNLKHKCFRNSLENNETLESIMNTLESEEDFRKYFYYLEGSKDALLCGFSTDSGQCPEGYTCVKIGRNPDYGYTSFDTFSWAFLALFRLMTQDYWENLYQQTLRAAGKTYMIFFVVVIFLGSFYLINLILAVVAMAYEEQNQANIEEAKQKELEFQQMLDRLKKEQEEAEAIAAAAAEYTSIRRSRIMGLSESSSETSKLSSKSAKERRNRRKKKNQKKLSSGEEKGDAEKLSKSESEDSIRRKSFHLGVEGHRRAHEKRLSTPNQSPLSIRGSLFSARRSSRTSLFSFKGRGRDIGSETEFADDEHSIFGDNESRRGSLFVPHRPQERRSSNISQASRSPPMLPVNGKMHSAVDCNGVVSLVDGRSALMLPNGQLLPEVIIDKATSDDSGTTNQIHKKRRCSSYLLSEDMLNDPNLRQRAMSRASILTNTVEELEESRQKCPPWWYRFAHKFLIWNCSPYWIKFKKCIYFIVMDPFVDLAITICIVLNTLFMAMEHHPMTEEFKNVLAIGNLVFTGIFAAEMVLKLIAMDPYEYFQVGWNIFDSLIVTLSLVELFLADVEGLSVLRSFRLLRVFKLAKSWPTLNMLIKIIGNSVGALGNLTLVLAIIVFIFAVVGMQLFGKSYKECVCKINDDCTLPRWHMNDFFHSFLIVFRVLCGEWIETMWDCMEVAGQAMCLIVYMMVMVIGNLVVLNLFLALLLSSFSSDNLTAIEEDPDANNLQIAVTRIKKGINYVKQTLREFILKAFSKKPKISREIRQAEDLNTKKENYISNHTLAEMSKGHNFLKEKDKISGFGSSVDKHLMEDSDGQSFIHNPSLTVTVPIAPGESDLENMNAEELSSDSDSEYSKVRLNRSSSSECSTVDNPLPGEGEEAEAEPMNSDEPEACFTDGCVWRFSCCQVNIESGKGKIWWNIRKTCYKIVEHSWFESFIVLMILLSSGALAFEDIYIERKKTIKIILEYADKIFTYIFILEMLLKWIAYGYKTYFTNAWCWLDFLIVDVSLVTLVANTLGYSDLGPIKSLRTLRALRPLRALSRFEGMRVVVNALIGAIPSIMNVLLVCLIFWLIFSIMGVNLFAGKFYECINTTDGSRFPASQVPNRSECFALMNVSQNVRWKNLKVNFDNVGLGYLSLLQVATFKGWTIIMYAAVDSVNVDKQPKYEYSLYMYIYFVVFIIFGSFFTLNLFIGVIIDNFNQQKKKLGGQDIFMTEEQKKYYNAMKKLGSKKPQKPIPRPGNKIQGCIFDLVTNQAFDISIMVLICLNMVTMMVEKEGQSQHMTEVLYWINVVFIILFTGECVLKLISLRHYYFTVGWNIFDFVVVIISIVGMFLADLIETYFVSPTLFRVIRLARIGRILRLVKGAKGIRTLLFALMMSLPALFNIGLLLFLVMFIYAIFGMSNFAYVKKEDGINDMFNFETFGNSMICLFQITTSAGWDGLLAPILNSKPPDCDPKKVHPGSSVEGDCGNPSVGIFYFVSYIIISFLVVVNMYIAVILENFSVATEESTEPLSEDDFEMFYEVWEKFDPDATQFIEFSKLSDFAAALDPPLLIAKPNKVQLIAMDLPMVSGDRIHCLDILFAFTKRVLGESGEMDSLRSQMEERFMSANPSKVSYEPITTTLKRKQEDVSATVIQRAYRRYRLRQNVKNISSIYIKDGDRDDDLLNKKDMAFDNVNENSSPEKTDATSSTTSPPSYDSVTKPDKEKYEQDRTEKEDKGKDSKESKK

IC50 [nM]	Compound
2700	COc1cc(Cl)ccc1Oc1ccc(C(=O)NS(C)(=O)=O)cc1-c1cccnc1OC [Example 1, 4-(4-chloro-2-methoxyphenoxy)-3-(2-methoxypyridin-3-yl)-N-(methylsulfonyl)benzamide diethylamine salt]
990	COc1cccnc1-c1cc(C(=O)NS(C)(=O)=O)ccc1Oc1ccc(Cl)cc1 [Example 3, 4-(4-chlorophenoxy)-3-(3-methoxypyridin-2-yl)-N-(methylsulfonyl)benzamide]
4500	COc1cc(Cl)ccc1Oc1cc(F)c(C(=O)NS(C)(=O)=O)cc1-c1cccnc1OC [Example 4, 4-(4-chloro-2-methoxyphenoxy)-2-fluoro-5-(2-methoxypyridin-3-yl)-N-(methylsulfonyl)benzamide]
900	COc1ncccc1-c1cc(C(=O)NS(C)(=O)=O)ccc1Oc1ccccc1 [Example 5, 3-(2-methoxypyridin-3-yl)-N-(methylsulfonyl)-4-phenoxybenzamide]
1300	COc1ncccc1-c1cc(C(=O)NS(=O)(=O)C2CC2)ccc1Oc1ccccc1 [Example 6, N-(cyclopropylsulfonyl)-3-(2-methoxypyridin-3-yl)-4-phenoxybenzamide]
66	COc1ncccc1-c1cc(C(=O)NS(C)(=O)=O)ccc1Oc1cnc(OC(C)C)c(Cl)c1 [Example 7, 4-[(5-Chloro-6-isopropoxypyridin-3-yl)oxy]-3-(2-methoxypyridin-3-yl)-N-(methylsulfonyl)benzamide]
49	CCOc1ncccc1-c1cc(C(=O)NS(C)(=O)=O)ccc1Oc1ccc(Cl)cc1 [Example 8, 4-(4-Chlorophenoxy)-3-(2-ethoxypyridin-3-yl)-N-(methylsulfonyl)benzamide]
110	CS(=O)(=O)NC(=O)c1ccc(Oc2ccc(Cl)cc2)c(-c2ccc(F)cc2)c1 [Example 9, 6-(4-Chlorophenoxy)-4′-fluoro-N-(methylsulfonyl)biphenyl-3-carboxamide]
940	CS(=O)(=O)NC(=O)c1ccc(Oc2ccc(Cl)cc2)c(-c2cc[nH]n2)c1 [Example 10, 4-(4-Chlorophenoxy)-N-(methylsulfonyl)-3-(1H-pyrazol-3-yl)benzamide]
3500	CCOc1ccc(-c2cc(C(=O)NS(C)(=O)=O)ccc2Oc2ccc(Cl)cc2)cc1 [Example 12, 6-(4-chlorophenoxy)-4′-ethoxy-N-(methylsulfonyl)-biphenyl-3-carboxamide]
> 3000	Cc1n[nH]c(C)c1-c1cc(C(=O)NS(C)(=O)=O)ccc1Oc1ccc(Cl)cc1 [Example 14, 4-(4-chlorophenoxy)-3-(3,5-dimethyl-1H-pyrazol-4-yl)-N-(methylsulfonyl)benzamide]
180	COc1ccccc1-c1cc(C(=O)NS(C)(=O)=O)ccc1Oc1ccc(Cl)cc1 [Example 15, 6-(4-chlorophenoxy)-2′-methoxy-N-(methylsulfonyl)-biphenyl-3-carboxamide]
910	COc1ccc(-c2cc(C(=O)NS(C)(=O)=O)ccc2Oc2ccc(Cl)cc2)cn1 [Example 16, 4-(4-chlorophenoxy)-3-(6-methoxypyridin-3-yl)-N-(methylsulfonyl)benzamide]
570	CS(=O)(=O)NC(=O)c1ccc(Oc2ccc(Cl)cc2)c(-c2ccccc2F)c1 [Example 18, 6-(4-chlorophenoxy)-2′-fluoro-N-(methylsulfonyl)-biphenyl-3-carboxamide]
820	CCOc1cccc(-c2cc(C(=O)NS(C)(=O)=O)ccc2Oc2ccc(Cl)cc2)c1 [Example 20, 6-(4-chlorophenoxy)-3′-ethoxy-N-(methylsulfonyl)-biphenyl-3-carboxamide]
4600	CS(=O)(=O)NC(=O)c1ccc(Oc2ccc(Cl)cc2)c(-c2ccncc2)c1 [Example 21, 4-(4-chlorophenoxy)-N-(methylsulfonyl)-3-pyridin-4-ylbenzamide]

IC50 [nM]	Compound
2800	CS(=O)(=O)NC(=O)c1ccc(Oc2ccc(Cl)cc2)c(-c2cncnc2)c1 [Example 23, 4-(4-chlorophenoxy)-N-(methylsulfonyl)-3-pyrimidin-5-ylbenzamide]
500	CS(=O)(=O)NC(=O)c1ccc(Oc2ccc(Cl)cc2)c(-c2ccccc2OC(F)(F)F)c1 [Example 24, 6-(4-chlorophenoxy)-N-(methylsulfonyl)-2′-(trifluoromethoxy)biphenyl-3-carboxamide]
> 3000	Cn1nccc1-c1cc(C(=O)NS(C)(=O)=O)ccc1Oc1ccc(Cl)cc1 [Example 27, 4-(4-chlorophenoxy)-3-(1-methyl-1H-pyrazol-5-yl)-N-(methylsulfonyl)benzamide]
570	COc1cccc(-c2cc(C(=O)NS(C)(=O)=O)ccc2Oc2ccc(Cl)cc2)c1 [Example 29, 6-(4-chlorophenoxy)-3′-methoxy-N-(methylsulfonyl)-biphenyl-3-carboxamide]
270	CS(=O)(=O)NC(=O)c1ccc(Oc2ccc(Cl)cc2)c(-c2ccccc2Cl)c1 [Example 31, 2′-chloro-6-(4-chlorophenoxy)-N-(methylsulfonyl)-biphenyl-3-carboxamide]
120	CCOc1ccccc1-c1cc(C(=O)NS(C)(=O)=O)ccc1Oc1ccc(Cl)cc1 [Example 32, 6-(4-chlorophenoxy)-2′-ethoxy-N-(methylsulfonyl)-biphenyl-3-carboxamide]
290	CS(=O)(=O)NC(=O)c1ccc(Oc2ccc(Cl)cc2)c(-c2ccccc2C#N)c1 [Example 33, 6-(4-chlorophenoxy)-2′-cyano-N-(methylsulfonyl)-biphenyl-3-carboxamide]
8600	Cc1cc(-c2cc(C(=O)NS(C)(=O)=O)ccc2Oc2ccc(Cl)cc2)ccn1 [Example 34, 4-(4-chlorophenoxy)-3-(2-methylpyridin-4-yl)-N-(methylsulfonyl)benzamide]
8000	CS(=O)(=O)NC(=O)c1ccc(Oc2ccc(Cl)cc2)c(-c2ccccc2C(F)(F)F)c1 [Example 35, 6-(4-chlorophenoxy)-N-(methylsulfonyl)-2′-(trifluoromethyl)biphenyl-3-carboxamide]
3900	COc1ncc(-c2cc(C(=O)NS(C)(=O)=O)ccc2Oc2ccc(Cl)cc2)cc1F [Example 36, 4-(4-chlorophenoxy)-3-(5-fluoro-6-methoxypyridin-3-yl)-N-(methylsulfonyl)benzamide]
340	CS(=O)(=O)NC(=O)c1ccc(Oc2ccc(Cl)cc2)c(-c2ccc(Cl)cn2)c1 [Example 37, 4-(4-chlorophenoxy)-3-(5-chloropyridin-2-yl)-N-(methylsulfonyl)benzamide]
> 3000	Cc1ccc(-c2cc(C(=O)NS(C)(=O)=O)ccc2Oc2ccc(Cl)cc2)cn1 [Example 38, 4-(4-chlorophenoxy)-3-(6-methylpyridin-3-yl)-N-(methylsulfonyl)benzamide]
1100	CS(=O)(=O)NC(=O)c1ccc(Oc2ccc(Cl)cc2)c(-c2ccc(C#N)nc2)c1 [Example 39, 4-(4-chlorophenoxy)-3-(6-cyanopyridin-3-yl)-N-(methylsulfonyl)benzamide]
> 3000	CCCn1cc(-c2cc(C(=O)NS(C)(=O)=O)ccc2Oc2ccc(Cl)cc2)cn1 [Example 41, 4-(4-chlorophenoxy)-N-(methylsulfonyl)-3-(1-propyl-1H-pyrazol-4-yl)benzamide]
7500	COc1ccc(-c2cc(C(=O)NS(C)(=O)=O)ccc2Oc2ccc(Cl)cc2)c(C)n1 [Example 42, 4-(4-chlorophenoxy)-3-(6-methoxy-2-methylpyridin-3-yl)-N-(methylsulfonyl)benzamide]

Compound	IC50 [nM]
COc1ncccc1-c1cc(C(=O)NS(C)(=O)=O)ccc1Oc1ccc(OCC(C)C)nc1 [Example 2, 4-[(6-isobutoxypyridin-3-yl)oxy]-3-(2-methoxypyridin-3-yl)-N-(methylsulfonyl)benzamide diethylamine salt]	220
